{"source": "patent US12202805B2", "about": "“Process for preparing (5S)-{[2-(4-carboxyphenyl)ethyl] |2-(2-{|3-chloro-4'-(trifluoromethyl)biphenyl-4-yl]methoxy}phenyl)ethyl]aminol-5,6,7,8-tetrahydroquinoline-2-carboxylic acid and its crystalline forms for use as pharmaceutically active compound” (Bayer Aktiengesellschaft, priority 2021, dated 2025)", "tested_on": "thromboxane A2 challenged PAH-minipig", "test": "Haemodynamics in the anesthetized thromboxane challenged minipig, intratracheal dry powder (PAP, BP)", "type": "in vivo, Göttingen Minipigs", "conditions": "375 μg/kg i.t.", "experimental": "Healthy Göttingen Minipigs® Ellegaard (Ellegaard, Denmark) of both sexes and having a weight of 2-6 kg were used. The animals were sedated by i.m. administration of about 25 mg/kg ketamine and about 10 mg/kg azaperone. Anaesthesia was initiated by i.v. administration of about 2 mg/kg ketamine and about 0.3 mg/kg midazolam. Maintenance of anaesthesia was by i.v. administration of about 7.5-30 mg/kg/h ketamine and about 1-4 mg/kg/h midazolam (rate of infusion 1-4 ml/kg/h) and about 150 μg/kg/h pancuronium bromide (for example Pancuronium-Actavis). After intubation, the animals were ventilated by the ventilator at a constant respiratory volume (10-12 ml/kg, 35 breaths/min; Avea®, Viasys Healthcare, USA, or Engström Carestation, GE Healthcare, Freiburg, Germany) such that an end-tidal CO2 concentration of about 5% was achieved. Ventilation was performed with room air, enriched with about 40% oxygen (normoxia). For the measurement of the haemodynamic parameters such as pulmonary arterial pressure (PAP), blood pressure (BP) and heart rate (HR), catheters were inserted into the carotid artery to measure the blood pressure, and a Swan-Ganz® catheter was introduced in a flow-directed manner via the jugular vein into the pulmonary artery. The haemodynamic signals were recorded and evaluated by means of pressure transducers (Combitransducer, B. Braun, Melsungen, Germany)/amplifiers and Ponemah® as data acquisition software.\nAs reference pure Lactose vehicle was applied in the beginning of each experiment.", "note": "Values joined by “and” are separate entries in the source; they are usually repeats but may differ in a detail not shown here. Equal values may be shown once.", "data": [{"smiles": "O.O=C(O)c1ccc(CCN(CCc2ccccc2OCc2ccc(-c3ccc(C(F)(F)F)cc3)cc2Cl)[C@H]2CCCc3nc(C(=O)O)ccc32)cc1.O=C(O)c1ccc(CCN(CCc2ccccc2OCc2ccc(-c3ccc(C(F)(F)F)cc3)cc2Cl)[C@H]2CCCc3nc(C(=O)O)ccc32)cc1", "note": "[example 6a, (5S)—{[2-(4-Carboxyphenyl)ethyl][2-(2-{[3-chloro-4′-(trifluoromethyl)biphenyl-4-yl]methoxy}phenyl)-ethyl]amino}-5,6,7,8-tetrahydroquinoline-2-carboxylic acid semihydrate]", "values": [{"measurement": "PAP, % changes vs. prevalues", "setting": "time 160 min", "value": "59.9% and 77.1% and 73.1%"}, {"measurement": "BP (mean)", "setting": "time 170 min", "value": "95 mmHg and 79 mmHg"}, {"measurement": "BP, % changes vs. prevalues", "setting": "time 170 min", "value": "95.6% and 99.7% and 107.4%"}, {"measurement": "PAP(mean)", "setting": "time 170 min", "value": "24.0 mmHg and 32.4 mmHg and 29.9 mmHg"}, {"measurement": "PAP, % changes vs. prevalues", "setting": "time 170 min", "value": "58.6% and 76.7% and 72.3%"}, {"measurement": "BP (mean)", "setting": "time 180 min", "value": "94 mmHg and 79 mmHg"}, {"measurement": "BP, % changes vs. prevalues", "setting": "time 180 min", "value": "94.6% and 99.7% and 106.3%"}, {"measurement": "PAP(mean)", "setting": "time 180 min", "value": "23.7 mmHg and 31.9 mmHg and 29.7 mmHg"}, {"measurement": "PAP, % changes vs. prevalues", "setting": "time 180 min", "value": "58.0% and 75.4% and 71.8%"}, {"measurement": "BP (mean)", "setting": "time 190 min", "value": "94 mmHg and 85 mmHg and 93 mmHg"}, {"measurement": "BP, % changes vs. prevalues", "setting": "time 190 min", "value": "94.6% and 108.5% and 105.2%"}, {"measurement": "PAP(mean)", "setting": "time 190 min", "value": "24.4 mmHg and 32.4 mmHg and 29.2 mmHg"}, {"measurement": "PAP, % changes vs. prevalues", "setting": "time 190 min", "value": "59.5% and 78.4% and 70.7%"}, {"measurement": "BP (mean)", "setting": "time 200 min", "value": "92 mmHg and 85 mmHg"}, {"measurement": "BP, % changes vs. prevalues", "setting": "time 200 min", "value": "92.6% and 107.3% and 104.0%"}, {"measurement": "PAP(mean)", "setting": "time 200 min", "value": "24.8 mmHg and 32.4 mmHg and 29.4 mmHg"}, {"measurement": "PAP, % changes vs. prevalues", "setting": "time 200 min", "value": "60.5% and 76.8% and 71.1%"}, {"measurement": "BP (mean)", "setting": "time 210 min", "value": "90 mmHg and 81 mmHg and 91 mmHg"}, {"measurement": "BP, % changes vs. prevalues", "setting": "time 210 min", "value": "90.6% and 102.2% and 102.9%"}, {"measurement": "PAP(mean)", "setting": "time 210 min", "value": "24.8 mmHg and 31.9 mmHg and 29.2 mmHg"}, {"measurement": "PAP, % changes vs. prevalues", "setting": "time 210 min", "value": "60.6% and 75.5% and 70.8%"}, {"measurement": "BP (mean)", "setting": "time 220 min", "value": "89 mmHg and 79 mmHg"}, {"measurement": "BP, % changes vs. prevalues", "setting": "time 220 min", "value": "89.6% and 99.7% and 100.6%"}, {"measurement": "PAP(mean)", "setting": "time 220 min", "value": "24.7 mmHg and 31.7 mmHg and 29.1 mmHg"}, {"measurement": "PAP, % changes vs. prevalues", "setting": "time 220 min", "value": "60.3% and 75.1% and 70.3%"}, {"measurement": "BP (mean)", "setting": "time 230 min", "value": "87 mmHg and 78 mmHg and 89 mmHg"}, {"measurement": "BP, % changes vs. prevalues", "setting": "time 230 min", "value": "87.6% and 98.4% and 100.6%"}, {"measurement": "PAP(mean)", "setting": "time 230 min", "value": "24.0 mmHg and 31.3 mmHg and 28.6 mmHg"}, {"measurement": "PAP, % changes vs. prevalues", "setting": "time 230 min", "value": "58.7% and 74.1% and 69.1%"}, {"measurement": "BP (mean)", "setting": "time 240 min", "value": "87 mmHg and 77 mmHg"}, {"measurement": "BP, % changes vs. prevalues", "setting": "time 240 min", "value": "87.6% and 97.2% and 98.4%"}, {"measurement": "PAP(mean)", "setting": "time 240 min", "value": "24.1 mmHg and 31.3 mmHg and 28.1 mmHg"}, {"measurement": "PAP, % changes vs. prevalues", "setting": "time 240 min", "value": "58.9% and 74.2% and 68.0%"}, {"measurement": "BP (mean)", "setting": "time 250 min", "value": "85 mmHg and 76 mmHg"}, {"measurement": "BP, % changes vs. prevalues", "setting": "time 250 min", "value": "85.5% and 95.9% and 96.1%"}, {"measurement": "PAP(mean)", "setting": "time 250 min", "value": "24.2 mmHg and 30.7 mmHg and 28.1 mmHg"}, {"measurement": "PAP, % changes vs. prevalues", "setting": "time 250 min", "value": "59.0% and 72.7% and 67.9%"}, {"measurement": "BP (mean)", "setting": "time 260 min", "value": "85 mmHg and 76 mmHg and 84 mmHg"}, {"measurement": "BP, % changes vs. prevalues", "setting": "time 260 min", "value": "85.5% and 95.9% and 95.0%"}, {"measurement": "PAP(mean)", "setting": "time 260 min", "value": "24.1 mmHg and 30.6 mmHg and 28.1 mmHg"}, {"measurement": "PAP, % changes vs. prevalues", "setting": "time 260 min", "value": "58.8% and 72.5% and 68.0%"}, {"measurement": "BP (mean)", "setting": "time 270 min", "value": "85 mmHg and 76 mmHg and 87 mmHg"}, {"measurement": "BP, % changes vs. prevalues", "setting": "time 270 min", "value": "85.5% and 95.9% and 98.4%"}, {"measurement": "PAP(mean)", "setting": "time 270 min", "value": "24.4 mmHg and 30.6 mmHg and 27.8 mmHg"}, {"measurement": "PAP, % changes vs. prevalues", "setting": "time 270 min", "value": "59.6% and 72.4% and 67.3%"}, {"measurement": "BP (mean)", "setting": "time 280 min", "value": "85 mmHg and 75 mmHg and 84 mmHg"}, {"measurement": "BP, % changes vs. prevalues", "setting": "time 280 min", "value": "85.5% and 94.6% and 95.0%"}, {"measurement": "PAP(mean)", "setting": "time 280 min", "value": "24.3 mmHg and 30.7 mmHg and 28.0 mmHg"}, {"measurement": "PAP, % changes vs. prevalues", "setting": "time 280 min", "value": "59.3% and 72.6% and 67.8%"}, {"measurement": "BP (mean)", "setting": "time 290 min", "value": "84 mmHg and 75 mmHg and 83 mmHg"}, {"measurement": "BP, % changes vs. prevalues", "setting": "time 290 min", "value": "84.5% and 94.6% and 93.9%"}, {"measurement": "PAP(mean)", "setting": "time 290 min", "value": "24.1 mmHg and 30.7 mmHg and 27.6 mmHg"}, {"measurement": "PAP, % changes vs. prevalues", "setting": "time 290 min", "value": "58.8% and 72.6% and 66.7%"}, {"measurement": "BP (mean)", "setting": "time 300 min", "value": "83 mmHg and 77 mmHg and 82 mmHg"}, {"measurement": "BP, % changes vs. prevalues", "setting": "time 300 min", "value": "83.5% and 97.2% and 92.7%"}, {"measurement": "PAP(mean)", "setting": "time 300 min", "value": "23.7 mmHg and 30.5 mmHg and 27.7 mmHg"}, {"measurement": "PAP, % changes vs. prevalues", "setting": "time 300 min", "value": "57.9% and 72.2% and 67.1%"}]}]}
